This experiment deals with HBV. The experiment in a line: Activity of test compounds on viral production from HepAD38 cells (viral load by qPCR of HBV core sequence). The class given is cell-based. The conditions noted are these: Hepatitis B virus, 120 h, 5 days, supernatant HBV DNA by qPCR vs DMSO control, read-out: viral load lowering EC50 (Activity). Here is the method:
Assay Measuring Activity of Test Compounds on Viral Production from HepAD38 Cells
HepAD38 cells grown in a T-150 flask (Corning, cat#: 430825) with Growth Medium (DMEM/F12 (1:1) (Hyclone, cat#: SH30023.02), 1× Pen/Strep (Invitrogen, cat#: 15140-122), 10% FBS (Tissue Culture Biologics, cat#: 101), 250 μg/mL G418 (Alfa Aesar, cat#: J62671), 1 μg/mL Tetracycline (Teknova, cat#: T3320)) were detached with 0.25% trypsin-EDTA (Invitrogen, cat#: 25200-056). Tetracycline-free treatment medium (15 mL DMEM/F12 (1:1) 1×Pen/step, with 2% FBS, Tet-system approved (Clontech, cat#: 631106) were then added to mix, transferred into a 50 ml conical tube (Falcon, cat#: 21008-918) and spun at 1300 rpm for 5 min. Pelleted cells were then re-suspended/washed with 50 mL of 1×DPBS (Invitrogen, cat#: 14190-136) 2 times and 50 mL treatment medium twice. HepAD38 cells were then re-suspended with 10 mL of treatment medium, syringed and counted. Wells of 96-well clear bottom TC plate (Corning, cat#: 3904) were seeded at 50,000 cells/well in 180 μL of treatment medium, and 20 μL of either 10% DMSO (Sigma, cat#: D4540) as controls or a 10× solution of test compounds in 10% DMSO in treatment media was added for a final compound concentration starting at 10 μM, and plates were incubated in 5% CO2 incubator at 37° C. for 5 days.
Subsequently viral load production was assayed by quantitative PCR (qPCR) of the HBV core sequence. PCR reaction mixture containing forward primers HBV-f 5′-CTGTGCCTTGGGTGGCTTT-3′ (IDT DNA), Reverse primers HBV-r 5′-[…]-3′ (IDT DNA), Fluorescent TaqMan™ Probes HBV-probe 5′-FAM/AGCTCCAAA/ZEN/[…]/3IABkFQ-3′ (IDT DNA), 10 μL/well of PerfeCTa® qPCR ToughMix® (Quanta Biosciences, Cat#: 95114-05K), and 6 μL/well of DEPC water (Alfa Aesar, cat#: J62087) was prepared. Four μL of supernatant was added to 16 μL of the reaction mixture in a qPCR plate (Applied Biosytems, Cat#: 4309849), sealed with a film (Applied Biosystems, Cat#: 4311971), centrifuged for a few seconds, and subsequently run on an Applied Biosystems VIIA7. The PCR mixture was incubated at 45° C. for 5 min, then 95° C. for 10 min, followed by 40 cycles of 10 seconds at 95° C. and 20 seconds at 60° C. Viral load was quantified against known HBV DNA standards by using ViiA™ 7 Software. Viral load in the supernatant from wells with treated cells were compared against viral load in supernatant from DMSO control wells (≥ 3 per plate). Cell viability assay was performed with CellTiter-Glo Luminescent Cell Viability Assay (Promega, cat#: G7573) with modification. Mixed appropriate amount of CellTiter-Glo (CTG) 1×DPBS in a 1:1 ratio, added 100 uL of the mixture to each well followed completely removal of all supernatant in each well without touching cell surface. Incubated the plate at room temperature for 10 min on an orbital shaker, and then read the plate with a plate reader (TECAN M1000 or Envision). EC50 or CC50 values were calculated through curve-fitting of the four-parameter nonlinear-logistic-regression model (GraphPad Prism or Dotmatics). CC50 values were all >10 μM.
On the technique in general: In qPCR the cycle at which signal appears reflects the starting amount.
Regarding `CN1C(C(=O)Nc2ccc(F)c(Cl)c2)CC(c2cccc(C3CC3)c2)NS1(=O)=O` (stereo not drawn) [Example 13, N-(3-Chloro-4-fluorophenyl)-5-(3-cyclopropylphenyl)-2-methyl-1,2,6-thiadiazinane-3-carboxamide 1,1-dioxide], the EC50 was less than 1 µM.

In the case of `Cc1cc(-c2cccc(C3CC(C(=O)Nc4ccc(F)c(Cl)c4)N(C)S(=O)(=O)N3)c2)ccc1F` (stereo not drawn) [Example 10, N-(3-Chloro-4-fluorophenyl)-5-(4′-fluoro-3′-methyl-[1,1′-biphenyl]-3-yl)-2-methyl-1,2,6-thiadiazinane-3-carboxamide 1,1-dioxide], the concentration giving a half-maximal response (EC50) was less than 1 µM.

On to `CN1C(C(=O)Nc2ccc(F)c(Cl)c2)CC(c2cccc(-c3cccc(C(=O)O)c3)c2)NS1(=O)=O` (stereo not drawn) [Example 19, 3′-(5-((3-Chloro-4-fluorophenyl)carbamoyl)-6-methyl-1,1-dioxido-1,2,6-thiadiazinan-3-yl)-[1,1′-biphenyl]-3-carboxylic acid], for which the concentration for a half-maximal effect (EC50) lay within 1 to 5 µM.

Regarding `CN1C(C(=O)Nc2ccc(F)c(Cl)c2)CC(c2n[nH]c(=O)n2Cc2ccccc2)NS1(=O)=O` (stereo not drawn) [Example 38, 5-(4-Benzyl-5-oxo-4,5-dihydro-1H-1,2,4-triazol-3-yl)-N-(3-chloro-4-fluorophenyl)-2-methyl-1,2,6-thiadiazinane-3-carboxamide 1,1-dioxide], the 50% effective concentration (EC50) lay in the range of 5 to 10 µM.

On to `CN1C(C(=O)Nc2ccc(F)c(Cl)c2)CC(c2ccc(-c3cn(C)cn3)o2)NS1(=O)=O` (stereo not drawn) [Example 36, N-(3-Chloro-4-fluorophenyl)-2-methyl-5-(5-(1-methyl-1H-imidazol-4-yl)furan-2-yl)-1,2,6-thiadiazinane-3-carboxamide 1,1-dioxide], for which the EC50 is less than 1 µM.

As to `CN1[C@@H](C(=O)Nc2ccc(F)c(Cl)c2)C[C@@H](c2cccc(-n3ccnc3)c2)NS1(=O)=O` (single isomer, unassigned) [27-Isomer II], the concentration for a half-maximal effect (EC50) lay in the range of 5 to 10 µM.

With `CN1[C@H](C(=O)Nc2ccc(F)c(Cl)c2)C[C@H](c2cccc(-c3ccccc3)c2)NS1(=O)=O` (single isomer, unassigned) [2-Isomer I], the 50% effective concentration (EC50) was less than 1 µM.

For the compound `CC(C)c1ccc(-c2cccc(C3CC(C(=O)Nc4ccc(F)c(Cl)c4)N(C)S(=O)(=O)N3)c2)cc1` (stereo not drawn) [Example 7, N-(3-Chloro-4-fluorophenyl)-5-(4′-isopropyl-[1,1′-biphenyl]-3-yl)-2-methyl-1,2,6-thiadiazinane-3-carboxamide 1,1-dioxide], the EC50 was less than 1 µM.

With `CN1[C@H](C(=O)Nc2ccc(F)c(Cl)c2)C[C@H](c2cccc(-n3ccnc3)c2)NS1(=O)=O` (single isomer, unassigned) [27-Isomer I], the EC50 was less than 1 µM.

Take `CN1C(C(=O)Nc2ccc(F)c(Cl)c2)CC(c2cccc(-c3cncn3C)c2)NS1(=O)=O` (stereo not drawn) [Example 20, N-(3-Chloro-4-fluorophenyl)-2-methyl-5-(3-(1-methyl-1H-imidazol-5-yl)phenyl)-1,2,6-thiadiazinane-3-carboxamide 1,1-dioxide]: the 50% effective concentration (EC50) was less than 1 µM.

On to `CN1[C@H](C(=O)Nc2ccc(F)c(Cl)c2)C[C@H](c2cccc(-c3cccc(C(F)(F)F)c3)c2)NS1(=O)=O` (single isomer, unassigned) [8-Isomer I], for which the EC50 was less than 1 µM.

As to `CC(C)c1ccc(-c2cccc([C@@H]3C[C@H](C(=O)Nc4ccc(F)c(Cl)c4)N(C)S(=O)(=O)N3)c2)cc1` (single isomer, unassigned) [7-Isomer II], the half-maximal effective concentration (EC50) fell in the range of 1 to 5 µM.

For the compound `CN1C(C(=O)Nc2ccc(F)c(Cl)c2)CC(c2cccc(N3CCOCC3)c2)NS1(=O)=O` (stereo not drawn) [Example 24, N-(3-Chloro-4-fluorophenyl)-2-methyl-5-(3-morpholinophenyl)-1,2,6-thiadiazinane-3-carboxamide 1,1-dioxide], the EC50 is less than 1 µM.

In the case of `Cc1cc(-c2cccc([C@@H]3C[C@H](C(=O)Nc4ccc(F)c(Cl)c4)N(C)S(=O)(=O)N3)c2)ccc1F` (single isomer, unassigned) [10 Isomer II], the EC50 is 5 to 10 µM.

Consider `Cc1nnc(C2CC(C(=O)Nc3ccc(F)c(Cl)c3)N(C)S(=O)(=O)N2)n1C` (stereo not drawn) [Example 32, N-(3-Chloro-4-fluorophenyl)-5-(4,5-dimethyl-4H-1,2,4-triazol-3-yl)-2-methyl-1,2,6-thiadiazinane-3-carboxamide 1,1-dioxide], for which the EC50 lay in the range of 5 to 10 µM.

As to `CN1C(C(=O)Nc2ccc(F)c(Cl)c2)CC(c2nnc(Cc3ccccc3)n2C)NS1(=O)=O` (stereo not drawn) [Example 33, 5-(5-Benzyl-4-methyl-4H-1,2,4-triazol-3-yl)-N-(3-chloro-4-fluorophenyl)-2-methyl-1,2,6-thiadiazinane-3-carboxamide 1,1-dioxide], the EC50 lay within 5 to 10 µM.

Consider `Cc1cc(-c2cccc([C@@H]3C[C@H](C(=O)Nc4ccc(F)c(Cl)c4)N(C)S(=O)(=O)N3)c2)ccn1` (single isomer, unassigned) [3-Isomer II], for which the EC50 lay in the range of 5 to 10 µM.

Take `CN1C(C(=O)Nc2ccc(F)c(Cl)c2)CC(c2cccc(-c3ccc(C#N)cc3)c2)NS1(=O)=O` (stereo not drawn) [Example 4, N-(3-Chloro-4-fluorophenyl)-5-(4′-cyano-[1,1′-biphenyl]-3-yl)-2-methyl-1,2,6-thiadiazinane-3-carboxamide 1,1-dioxide]: the EC50 was less than 1 µM.

Take `CN1C(C(=O)Nc2ccc(F)c(Cl)c2)CC(c2cccc(C3=CCOCC3)c2)NS1(=O)=O` (stereo not drawn) [Example 11, N-(3-Chloro-4-fluorophenyl)-5-(3-(3,6-dihydro-2H-pyran-4-yl)phenyl)-2-methyl-1,2,6-thiadiazinane-3-carboxamide 1,1-dioxide]: the half-maximal effective concentration (EC50) is less than 1 µM.

With `CN1C(C(=O)Nc2ccc(F)c(Cl)c2)CC(c2cccc(-c3ccc(Cl)c(Cl)c3)c2)NS1(=O)=O` (stereo not drawn) [Example 9, N-(3-Chloro-4-fluorophenyl)-5-(3′,4′-dichloro-[1,1′-biphenyl]-3-yl)-2-methyl-1,2,6-thiadiazinane-3-carboxamide 1,1-dioxide], the half-maximal effective concentration (EC50) lay within 1 to 5 µM.

For the compound `Cc1ccc(-c2cccc(C3CC(C(=O)Nc4ccc(F)c(Cl)c4)N(C)S(=O)(=O)N3)c2)c(Cl)c1` (stereo not drawn) [Example 6, 5-(2′-Chloro-4′-methyl-[1,1′-biphenyl]-3-yl)-N-(3-Chloro-4-fluorophenyl)-2-methyl-1,2,6-thiadiazinane-3-carboxamide 1,1-dioxide], the half-maximal effective concentration (EC50) was less than 1 µM.

On to `CN1[C@@H](C(=O)Nc2ccc(F)c(Cl)c2)C[C@@H](c2cccc(-c3ccccc3)c2)NS1(=O)=O` (single isomer, unassigned) [2-Isomer II], for which the 50% effective concentration (EC50) was in the range of 5 to 10 µM.

Consider `Cc1cc(-c2cccc([C@H]3C[C@@H](C(=O)Nc4ccc(F)c(Cl)c4)N(C)S(=O)(=O)N3)c2)ccc1F` (single isomer, unassigned) [10-Isomer I], for which the EC50 was less than 1 µM.

With `CN1CCN(c2cccc([C@@H]3C[C@H](C(=O)Nc4ccc(F)c(Cl)c4)N(C)S(=O)(=O)N3)c2)CC1` (single isomer, unassigned) [25-Isomer II], the concentration giving a half-maximal response (EC50) lay in the range of 1 to 5 µM.

In the case of `CN1C(C(=O)Nc2ccc(F)c(Cl)c2)CC(c2cccc(-c3cnn(CC(=O)O)c3)c2)NS1(=O)=O` (stereo not drawn) [Example 17, 2-(4-(3-(5-((3-Chloro-4-fluorophenyl)carbamoyl)-6-methyl-1,1-dioxido-1,2,6-thiadiazinan-3-yl)phenyl)-1H-pyrazol-1-yl)acetic acid], the half-maximal effective concentration (EC50) fell in the range of 5 to 10 µM.

With `CN1[C@@H](C(=O)Nc2ccc(F)c(Cl)c2)C[C@@H](c2cccc(N3CCOCC3)c2)NS1(=O)=O` (single isomer, unassigned) [24-Isomer II], the EC50 was in the range of 5 to 10 µM.

For `CC(C)c1ccc(-c2cccc([C@H]3C[C@@H](C(=O)Nc4ccc(F)c(Cl)c4)N(C)S(=O)(=O)N3)c2)cc1` (single isomer, unassigned) [7-Isomer I], the concentration giving a half-maximal response (EC50) was less than 1 µM.

One may read the EC50 as the concentration at which the effect is half-maximal.

(Values after patent publication US20220081433A1, “CYCLIC SULFAMIDE COMPOUNDS FOR TREATMENT OF HBV” (Assembly Biosciences, Inc., priority 2018, published 2022).)
